IC50 data for 19 compounds are collected here from patent publication US20240025884A1 (Dong-A ST Co., Ltd., priority 2022, published 2024).

pIC50: −log10 of the molar value. Where only a bound is given, the exact number is not on record here.

Sequence of GCN2 (Q9P2K8 whole entry): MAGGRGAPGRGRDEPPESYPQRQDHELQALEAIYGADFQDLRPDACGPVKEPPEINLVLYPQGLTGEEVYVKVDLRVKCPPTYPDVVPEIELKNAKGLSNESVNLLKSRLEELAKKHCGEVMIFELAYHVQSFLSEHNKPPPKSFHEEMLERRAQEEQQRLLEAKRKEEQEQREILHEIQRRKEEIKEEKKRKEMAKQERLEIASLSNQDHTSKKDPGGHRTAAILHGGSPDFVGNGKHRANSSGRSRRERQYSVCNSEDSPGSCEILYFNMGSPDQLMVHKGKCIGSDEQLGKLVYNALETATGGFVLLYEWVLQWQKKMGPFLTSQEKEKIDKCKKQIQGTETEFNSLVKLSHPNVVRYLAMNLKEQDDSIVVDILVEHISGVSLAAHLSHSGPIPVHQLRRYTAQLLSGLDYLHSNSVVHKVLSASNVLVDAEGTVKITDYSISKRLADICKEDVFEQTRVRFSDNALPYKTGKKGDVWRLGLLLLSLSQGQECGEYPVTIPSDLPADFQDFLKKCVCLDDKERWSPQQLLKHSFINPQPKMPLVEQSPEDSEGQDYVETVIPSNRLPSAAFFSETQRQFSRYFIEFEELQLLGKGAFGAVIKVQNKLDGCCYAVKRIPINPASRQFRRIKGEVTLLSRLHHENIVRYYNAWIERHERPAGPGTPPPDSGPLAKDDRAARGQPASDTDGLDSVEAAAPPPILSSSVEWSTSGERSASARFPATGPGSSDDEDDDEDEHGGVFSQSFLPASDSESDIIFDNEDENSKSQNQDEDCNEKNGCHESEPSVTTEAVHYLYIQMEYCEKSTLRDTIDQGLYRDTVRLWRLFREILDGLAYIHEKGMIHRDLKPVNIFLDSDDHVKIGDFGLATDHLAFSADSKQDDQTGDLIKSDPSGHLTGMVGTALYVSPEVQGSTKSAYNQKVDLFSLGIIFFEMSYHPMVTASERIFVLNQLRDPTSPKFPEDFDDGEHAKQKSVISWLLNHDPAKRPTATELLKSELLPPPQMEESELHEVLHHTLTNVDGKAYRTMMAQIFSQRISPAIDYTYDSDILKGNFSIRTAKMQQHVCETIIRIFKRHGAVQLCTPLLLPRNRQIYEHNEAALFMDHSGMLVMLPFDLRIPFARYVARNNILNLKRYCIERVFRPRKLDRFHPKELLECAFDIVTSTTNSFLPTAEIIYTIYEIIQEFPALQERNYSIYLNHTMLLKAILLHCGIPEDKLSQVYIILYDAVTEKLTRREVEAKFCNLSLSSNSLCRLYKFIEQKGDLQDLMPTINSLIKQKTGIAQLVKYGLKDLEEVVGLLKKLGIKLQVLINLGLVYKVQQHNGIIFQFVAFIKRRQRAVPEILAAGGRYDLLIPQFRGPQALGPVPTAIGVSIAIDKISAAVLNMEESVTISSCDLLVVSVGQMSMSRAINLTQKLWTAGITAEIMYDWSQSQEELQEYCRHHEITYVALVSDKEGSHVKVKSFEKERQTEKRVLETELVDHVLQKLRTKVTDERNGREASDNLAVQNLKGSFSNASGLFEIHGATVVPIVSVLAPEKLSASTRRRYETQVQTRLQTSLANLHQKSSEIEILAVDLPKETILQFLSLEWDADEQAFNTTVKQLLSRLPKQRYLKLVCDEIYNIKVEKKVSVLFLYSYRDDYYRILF

For this test, the target named is GCN2 (Homo sapiens (Human), UniProt Q9P2K8). Put plainly: GCN2 Biochemical Assay (TR-FRET, GFP-eIF2S1 substrate phosphorylation). Particulars: read-out: IC50 (GCN2 Inhibitory Activity). In short, it runs like this:
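In-house GCN2 (1.6 nM 2× stock) phosphorylates GFP-eIF2S1 (50 nM 2× stock) with ATP (0.2 mM 2× stock) and tRNA, pH 7.5, 70 min at room temperature; 10-point 3.16-fold compound series. TR-FRET detection with Tb-anti-phospho antibody, 2–3 h, Ex 340/Em 490/520 nm; artifact plate spiked with phospho-substrate.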
(In general: TR-FRET usually uses a lanthanide donor and a delayed reading to cut background.)
One may read the pIC50 as the IC50 on a negative log10 scale, so that one unit is a factor of ten. On to `Cc1cnc(Nc2cc(C)n(C)n2)nc1-c1c[nH]c2c(N3Cc4c(/C=C/CO)cccc4C3=O)cccc12` [Example 375, (E)-2-(3-(2-((1,5-dimethyl-1H-pyrazol-3-yl)amino)-5-methylpyrimidin-4-yl)-1H-indol-7-yl)-4-(3-hydroxyprop-1-en-1-yl)isoindolin-1-one], for which the negative-log IC50 (pIC50) is > 8.00.
Regarding `Cc1cnc(Nc2cc(C)n(C)n2)nc1-c1c[nH]c2c(N3Cc4cccnc4C3=O)cccc12` [Example 288, 6-(3-(2-((1,5-dimethyl-1H-pyrazol-3-yl)amino)-5-methylpyrimidin-4-yl)-1H-indol-7-yl)-5,6-dihydro-7H-pyrrolo[3,4-b]pyridin-7-one], the negative-log IC50 (pIC50) is > 8.00.
Then `Cc1cnc(Nc2cc(C)n(C)n2)nc1-c1c[nH]c2c(N3Cc4c(cccc4-c4ccnc(F)c4)C3=O)cccc12` [Example 404, 2-(3-(2-((1,5-dimethyl-1H-pyrazol-3-yl)amino)-5-methylpyrimidin-4-yl)-1H-indol-7-yl)-4-(2-fluoropyridin-4-yl)isoindolin-1-one], with > 8.00; and `Cc1cnc(Nc2cc(C)n(C)n2)nc1-c1c[nH]c2c(N3Cc4c(cccc4C4=CCN(C(N)=O)CC4)C3=O)cccc12` [Example 467, 4-(2-(3-(2-((1,5-dimethyl-1H-pyrazol-3-yl)amino)-5-methylpyrimidin-4-yl)-1H-indol-7-yl)-1-oxoisoindolin-4-yl)-3,6-dihydropyridine-1(2H)-carboxamide], with > 8.00; and `Cc1cnc(Nc2cc(C)n(C)n2)nc1-c1c[nH]c2c(N3Cc4c(NC(=O)C5CC=CCC5)cccc4C3=O)cccc12` (stereo not shown) [Example 309, N-(2-(3-(2-((1,5-dimethyl-1H-pyrazol-3-yl)amino)-5-methylpyrimidin-4-yl)-1H-indol-7-yl)-1-oxoisoindolin-4-yl)cyclohex-3-ene-1-carboxamide], with 7.00 to 8.00.
As to `Cc1cnc(Nc2cc(C)n(C)n2)nc1-c1c[nH]c2c(N3Cc4c(ccnc4-c4ccncc4)C3=O)cccc12` [Example 501, 2-(3-(2-((1,5-dimethyl-1H-pyrazol-3-yl)amino)-5-methylpyrimidin-4-yl)-1H-indol-7-yl)-4-(pyridin-4-yl)-2,3-dihydro-1H-pyrrolo[3,4-c]pyridin-1-one], the negative-log IC50 (pIC50) was > 8.00.
`Cc1cnc(Nc2cc(C)n(C)n2)nc1-c1c[nH]c2c(NC(=O)CN3CC[C@H](Oc4ncc(F)c(N5CCOCC5)n4)C3)cccc12` [Example 188, (S)-N-(3-(2-((1,5-dimethyl-1H-pyrazol-3-yl)amino)-5-methylpyrimidin-4-yl)-1H-indol-7-yl)-2-(3-((5-fluoro-4-morpholinopyrimidin-2-yl)oxy)pyrrolidin-1-yl)acetamide]: the negative-log IC50 (pIC50) is > 8.00.
As for `Cc1cnc(Nc2cc(C)n(C)n2)nc1-c1c[nH]c2c(NC(=O)CN3CC[C@H](Oc4cnc(-c5ccncc5)nc4)C3)cccc12` [Example 259, (S)-N-(3-(2-((1,5-dimethyl-1H-pyrazol-3-yl)amino)-5-methylpyrimidin-4-yl)-1H-indol-7-yl)-2-(3-((2-(pyridin-4-yl)pyrimidin-5-yl)oxy)pyrrolidin-1-yl)acetamide], the negative logarithm of the IC50 (pIC50) is 7.00 to 8.00.
Then `Cc1cnc(Nc2cc(C)n(C)n2)nc1-c1c[nH]c2c(N3Cc4cc(-c5ccncc5)cnc4C3=O)cccc12` [Example 497, 6-(3-(2-((1,5-dimethyl-1H-pyrazol-3-yl)amino)-5-methylpyrimidin-4-yl)-1H-indol-7-yl)-3-(pyridin-4-yl)-5,6-dihydro-7H-pyrrolo[3,4-b]pyridin-7-one], with > 8.00; and `Cc1cnc(Nc2cc(C)n(C)n2)nc1-c1c[nH]c2c(NC(=O)CN3CC[C@H](Oc4cc(C5=CCC(C)(C)CC5)ncn4)C3)cccc12` [Example 250], with 6.00 to 7.00; and `Cc1cnc(Nc2cc(C)n(C)n2)nc1-c1c[nH]c2c(N3Cc4c(NC(=O)c5ccccc5)cccc4C3=O)cccc12` [Example 294, N-(2-(3-(2-((1,5-dimethyl-1H-pyrazol-3-yl)amino)-5-methylpyrimidin-4-yl)-1H-indol-7-yl)-1-oxoisoindolin-4-yl)benzamide], with 7.00 to 8.00.
Then `Cc1cc(O[C@H]2CCN(CC(=O)Nc3cccc4c(-c5nc(Nc6cc(C)n(C)n6)ncc5C)c[nH]c34)C2)nc(NC2CC2)n1` [Example 236, (S)-2-(3-((2-(cyclopropylamino)-6-methylpyrimidin-4-yl)oxy)pyrrolidin-1-yl)-N-(3-(2-((1,5-dimethyl-1H-pyrazol-3-yl)amino)-5-methylpyrimidin-4-yl)-1H-indol-7-yl)acetamide], with > 8.00; and `Cc1cnc(Nc2cc(C)n(C)n2)nc1-c1c[nH]c2c(N3Cc4c(cccc4-c4ccnc(Cl)c4)C3=O)cccc12` [Example 402, 4-(2-chloropyridin-4-yl)-2-(3-(2-((1,5-dimethyl-1H-pyrazol-3-yl)amino)-5-methylpyrimidin-4-yl)-1H-indol-7-yl)isoindolin-1-one], with 7.00 to 8.00; and `CCCN(CC)c1cc(O[C@H]2CCN(CC(=O)Nc3cccc4c(-c5nc(Nc6cc(C)n(C)n6)ncc5C)c[nH]c34)C2)ncn1` [Example 156, (S)-N-(3-(2-((1,5-dimethyl-1H-pyrazol-3-yl)amino)-5-methylpyrimidin-4-yl)-1H-indol-7-yl)-2-(3-((6-(ethyl(propyl)amino)pyrimidin-4-yl)oxy)pyrrolidin-1-yl)acetamide], with 7.00 to 8.00.
Regarding `Cc1cnc(Nc2cc(C)n(C)n2)nc1-c1c[nH]c2c(N3Cc4c(/C=C/C(=O)O)cccc4C3=O)cccc12` [Example 367, (E)-3-(2-(3-(2-((1,5-dimethyl-1H-pyrazol-3-yl)amino)-5-methylpyrimidin-4-yl)-1H-indol-7-yl)-1-oxoisoindolin-4-yl)acrylic acid], the pIC50 is > 8.00.
With `Cc1cc(-c2ccc(F)c3c2CN(c2cccc4c(-c5nc(Nc6cc(C)n(C)n6)ncc5C)c[nH]c24)C3=O)ccn1` [Example 454, 2-(3-(2-((1,5-dimethyl-1H-pyrazol-3-yl)amino)-5-methylpyrimidin-4-yl)-1H-indol-7-yl)-7-fluoro-4-(2-methylpyridin-4-yl)isoindolin-1-one], the negative-log IC50 (pIC50) was > 8.00.
For `Cc1cnc(Nc2cc(C)n(C)n2)nc1-c1c[nH]c2c(N3Cc4c(cccc4-c4cnc(N5CCNCC5)nc4)C3=O)cccc12` [Example 424, 2-(3-(2-((1,5-dimethyl-1H-pyrazol-3-yl)amino)-5-methylpyrimidin-4-yl)-1H-indol-7-yl)-4-(2-(piperazin-1-yl)pyrimidin-5-yl)isoindolin-1-one], the negative logarithm of the IC50 (pIC50) was > 8.00.
`Cc1cnc(Nc2cc(C)n(C)n2)nc1-c1c[nH]c2c(NC(=O)CN3CC[C@H](Oc4nc(Cl)ncc4N)C3)cccc12` [Example 96, (S)-2-(3-((5-amino-2-chloropyrimidin-4-yl)oxy)pyrrolidin-1-yl)-N-(3-(2-((1,5-dimethyl-1H-pyrazol-3-yl)amino)-5-methylpyrimidin-4-yl)-1H-indol-7-yl)acetamide]: the negative logarithm of the IC50 (pIC50) is 7.00 to 8.00.
Regarding `Cc1cnc(Nc2cc(C)n(C)n2)nc1-c1c[nH]c2c(N3Cc4c(cccc4-c4ccncn4)C3=O)cccc12` [Example 421, 2-(3-(2-((1,5-dimethyl-1H-pyrazol-3-yl)anlino)-5-methylpyrimidin-4-yl)-1H-indol-7-yl)-4-(pyrimidin-4-yl)isoindolin-1-one], the pIC50 is > 8.00.
